Experimental data taken from patent publication US12195477B2, “Derivative of berberine, and the preparation method and application thereof” (priority 2021, dated 2025).

Legend:
[1] = system: myocardial infarcted mice; assay: Mouse model of myocardial infarction (ligation of the left anterior descending coronary artery), cardiac function by ultrasonography; assay type: in vivo, C57BL/6 male mice; details: 2 weeks
Text: The mouse model of myocardial infarction was established by ligation of the left anterior descending branch of the coronary artery. The agent was then administrated to the mice to determine the effect of the test sample on myocardial ischemia, and the effect of the test sample on the cardiac functions of the myocardial infarct mice.
Random grouping: the C57BL/6 mice were randomly divided into 5 groups, namely the sham-operation group, the myocardial infarction group, the berberine group (berberine at a dosage of 40 mg/kg·d^−1), the test compound group (brominated 9-O-propyl berberine thiazole formate at a dosage of 40 mg/kg·d^−1) and the positive control group (sacubitril and valsartan sodium at a dosage of 26 mg/kg·d^−1).
The mouse model of myocardial ischemia was established by ligation of the left anterior descending branch of the coronary artery. Healthy male C57BL/6 mice (28±2 g) were anesthetized by intraperitoneal injection of aphrodin (0.2 g/kg). The anesthetic mice were placed in a supine position on the operation desk with the trachea connected to a ventilator by inserting a tracheal tube. An incision of about 0.5˜4.0 cm was made on the skin of the left chest from the upper left to the lower right. Pectoralis minor and serratus anterior were separated. The intercostal muscle was bluntly separated between the fourth and fifth rib, and the heart was slightly squeezed out.
Except for the sham-operation group, coronary artery ligation was performed to all other mice. The mice were randomly divided into 4 groups 24 hours after ligation, including the myocardial infarction group, the berberine group, the brominated 9-O-propyl berberine thiazole formate group and the positive control group. Blank solvent, berberine, brominated 9-O-propyl berberine thiazole formate and positive control sacubitril and valsartan sodium were administrated to the mice by gavage (as shown in Table 1) for consecutive 14 days. […]
The Experiment data were expressed as mean±standard error. […] All experiment results were statistically analyzed by Graphpad Prism 8.0.

[2] = system: primary cardiac cells from neonatal mice after H2O2 treatment; assay: SOD in H2O2-injured primary cardiac cells (WST-1 assay); assay type: cell-based
Procedure: Dismutation of superoxide anion can be catalyzed by superoxide dismutase (SOD) to give hydrogen peroxide and oxygen. SOD is a kind of important antioxidases in organisms. SOD plays a vital role in the equilibrium between oxidation and anti-oxidation in organisms. SOD is able to scavenge superoxide anion free radicals and protect cells from injuries. In this test, the SOD activity was determined using WST-1 assay.
(§1) After disinfecting the neonatal mice (within 3 days after birth) by alcohol, the skin and sternum of the left chest were cut off at one time using a scissor. The heart was then squeezed out, taken and put into a pre-cooled FBS-free DMEM culture medium with a curved forceps. The blood vessels on the surface of heart, the residual blood and the attached lung tissue were removed. The heart tissue was cut into pieces with homogeneous size. The heart pieces were drawn into a 15 ml centrifuge tube, and the supernatant was discarded. The tissue was rinsed by PBS for 2-3 times. The trypsinization solution was added at equivalent volume of the heart tissue. The centrifuge tube was kept shaken to accelerate digestion. After the solution become turbid, the digestion was stopped by transferring the solution to DMEM culture medium. After the digestion of all heart tissues was completed, the digest was filtered by a sieve, and centrifuged at 1500 rpm for 5 min. […]
(§2) After digestion, the primary cardiac cells from neonatal mice were re-suspended into a 6-well plate at a appropriate concentration with volume of 2 mL for each well. […] The activity of SOD and the content of ATP in the cells were determined according to the instruction provided in the SOD and ATP detection kit, respectively. […]
(§3) The experiment data were expressed as mean±standard error. The SOD and ATP content in the cells in each group were analyzed by One-way ANOVA, with P<0.05 indicating a significant difference. All experiment results were statistically analyzed and plotted using Graphpad Prism 8.0.

[3] = system: primary cardiac cells from neonatal mice; assay: Cytotoxicity test, CCK-8 assay; assay type: cell-based; details: 24 hours
Text: The toxicity of the novel compound, brominated 9-O-propyl berberine thiazole formate, on the primary cardiac cells from neonatal mice was detected using CCK-8 assay. The CCK-8 agent contains WST-8, which has the chemical name: 2-(2-methoxy-4-nitrophenyl)-3-(4-nitrophenyl)-5-(2,4-disulfophenyl)-2H-tetrazolium sodium salt. It can be reduced to yellow formazan with high water solubility by the dehydrogenase existing in the mitochondrion in a cell in the presence of electron carrier 1-methoxy-5-methylphenazinium methyl sulfate (1-Methoxy PMS). The amount of formazan generated is proportional to the number of live cells. The absorbance is detected at a wavelength of 450 nm by an enzyme-linked immunosorbent assay, which represents the number of live cells, in which a larger value indicates a higher cell activity. […]
After digestion, the primary cardiac cells from neonatal mice were re-suspended into a 96-well plate at a appropriate concentration with volume of 100 μl for each well. […] After incubation at 37° C. for 1-4 hours, the mixture was placed in a micro-plate reader and shaken for 10 s. The absorbance at 450 nm (OD450) was recorded.
The relative inhibition rate of the compound at various concentrations on the primary cardiac cells from neonatal mice was calculated based on the equation: cell inhibition rate (%)=(1−OD450 of the sample group/OD450 of the control group)*100. […]

[4] = system: primary cardiac cells from neonatal mice after H2O2 treatment; assay: ATP in H2O2-injured primary cardiac cells (luciferase kit); assay type: cell-based
Text: A kit has been used in this study, based on that ATP is demanded to provide energy during the fluorescence production by the fluorescein catalyzed by the firefly luciferase (also termed as luciferase). When both luciferase and fluorescein are excessive, in a certain concentration range, the fluorescence generated is proportional to the concentration of ATP. That is, the concentration of ATP in the solution can be detected sensitively.
as §1, §2, §3

[5] = 40 mg/kg gavage once per day, ##P<0.01
[6] = vs. the model group, among 1, 2.5 and 5 μM, H2O2 100 μM

## COc1ccc2cc3[n+](cc2c1OCCCOC(=O)c1cscn1)CCc1cc2c(cc1-3)OCO2.[Br-] [9-(3-((thiazole-4-carbonyl)oxy)propoxy)-10-methoxy-5,6-dihydro-[1,3]dioxolo[4,5-g]isoquinolino[3,2-a]isoquinolin-7-ium bromide]
[1]; [5]
  ejection fraction (EF) vs. the myocardial infarction group: significantly increased
  fraction shortening (FS) vs. the myocardial infarction group: significantly increased
[1]; both 40 mg/kg gavage, &P<0.05 vs. the berberine group
  effect on EF and FS compared with berberine: better than that of the berberine
[2]; 1, 2.5 and 5 μM, H2O2 100 μM, 24 hours, #P<0.05, ###P<0.001
  SOD content vs. the model group: increased
[2]; same concentration (5 μM), &P<0.05
  SOD effect compared with berberine: apparently better than the effect of berberine at the same concentration
[2]; [6]
  highest enhancement of the SOD content: 43.4%
[3]; Mus musculus, 1000 μM, CCK-8, OD450, read-out: cell inhibition rate
  inhibition at 1000 µM: 41%
[3]; concentration range tested 0.1-1000 μM
  toxicity on primary cardiac cells: low toxicity
[4]; 1, 2.5 and 5 μM, H2O2 100 μM, 24 hours, ##P<0.01, ###P<0.001
  ATP content vs. the model group: increased
[4]; same concentration (5 μM), &&P<0.01
  ATP effect compared with berberine: apparently better than the effect of berberine at the same concentration
[4]; [6]
  highest enhancement of the ATP content: 59.1%
